The subject of assay [1] is H3K27me3, AR, ENO2, N-Myc, CBX2 protein levels. Briefly: Western blotting of protein expression in VCaP_NED cells. Type of assay: cell-based. The source says:
FIG. 12A). Neuroendocrine differentiation (NED) of prostate cancer induced by androgen deprivation. Representative pictures of LNCaP cells treated with normal media or charcoal-stripped serum (CSS) media for 6 days to induce neuroendocrine differentiation (LNCaP_NED). FIG. 12B). Transcriptional fold changes of KLK3/TMPRSS2/ENO2/CHGA were quantified normalized to control gene YWHAZ upon CSS media treatment for 6 or 9 days. FIG. 12C). Western blotting of CBX paralogs in LNCaP and LNCaP_NED cells generated from 14-day CSS treatment. FIG. 12D). Cell proliferation of LNCaP_NED following 5 days incubation with 2 or 10 μM SW2_152F. DMSO was used as negative control. FIG. 12E). LNCaP_NED cells were treated with 10 μM SW2_152F for 24 h-96 h. Cell morphology pictures were captured starting from 24 h. Average cell size were plotted at 24 h or 48 h for both DMSO group and compound treated group. FIG. 12F). LNCaP_NED cells were treated with 10 μM or 50 μM SW2_152F for 48 hours. Transcriptional fold change of genes (KLK3/TMPRSS2/AR/CBX2) were normalized to YWHAZ in LNCaP_NED cells with SW2_152F treatment or DMSO. FIG. 12G). LNCaP cells were treated with DMSO. LNCaP_NED cells were treated with DMSO, 10 μM GSK343 or 10 μM SW2_152F for 48 hours. Whole cell lysates were extracted for western blotting. FIG. 12H). LNCaP_NED cells were treated with DMSO or 10 μM SW2_152F for 4 hours before harvest. Binding of H3K27me3 and CBX2 at specific genomic sites (KLK3/TMPRSS2, e: enhancer, p: promoter) were evaluated using chromatin immunoprecipitation-qPCR. For all experiments in the figure, error bars represent SEM n=3 biological replicates, p-values were calculated using two-tailed Student's t-test, *=p<0.05, **=p<0.01, ***=p<0.001, ****=p<0.0001.
In another androgen-sensitive prostate cancer cell line, VCaP, 6 days of androgen deprivation decreases AR protein expression and increases ENO2, N-Myc, H3K27me3 and CBX2 protein expression (FIG. 12G), similar to published findings (Y. Zhang, et al., 2018). Using this NED cell line (VCaP_NED), we tested how addition of EZH2 inhibitor GSK343 or CBX2 inhibitor SW2_152F affects protein expression changes during NED.
On the technique in general: A western blot detects proteins with antibodies after separation by electrophoresis.

For another assay, the target named is T1, CBX7 ChD (Homo sapiens, UniProt O95931).
T1 construct: CBX chromodomain constructs; host or cells: E. coli BL21 CodonPlus RIL
T1 sequence (O95931 11-69 limits assumed): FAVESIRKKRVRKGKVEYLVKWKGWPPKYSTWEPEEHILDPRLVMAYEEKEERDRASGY
Briefly: Competitive fluorescence polarization (FP) assay. The note with it: average of quadruplicates ± s.d. Type of assay: binding. The procedure:
(§1) CBX chromodomain constructs (addgene plasmid #25158 (CBX2), #25237 (CBX4), #25296 (CBX6), #25241 (CBX7) and #62514 (CBX8, provided by Cheryl Arrowsmith), Kaustov et al.) were transformed into chemically competent BL21 CodonPlus RIL E. coli cells (Stratagene, La Jolla, Calif.) as N-terminal His6-tagged proteins. Bacterial growth was completed at 37° C. in LB media to OD600=2.0, followed by reducing the temperature to 16° C. over 30-60 min and induced with 1 mM IPTG for 16 h. Cells were collected by centrifugation at 6000 rpm for 20 min and resuspended in ChD binding buffer (20 mM Tris, pH 8, 150 mM NaCl, 0.01% Tween-20, 20 mM imidazole) with 1.0 mM PMSF. Bacteria pellets were stored at −80° C. until needed. Pellets were thawed on ice for 10 min in ChD binding buffer, and shaked at 4° C. supplemented with 100 μg/mL lysozyme, 1 mg/mL CHAPS and 1 mM PMSF, for 30 min. Cells were subsequently lysed by sonication (15 W, 30 s on, followed by 30 s off, twice, followed by 20 W for 1 min). The solubilized fraction was collected by centrifugation at 15000 rpm for 40 min at 4° C. Meanwhile, Ni-NTA Agarose resin (QIAGEN, Venlo, Netherlands) was washed with H2O and equilibrated with ChD binding buffer. The soluble fraction was incubated with the prewashed Ni-NTA agarose resin at 4° C. for 2 h. The resin was then washed 3× with ChD purification buffer (20 mM Tris, pH 8, 150 mM NaCl, 0.01% Tween-20, 1 mM PMSF). Proteins were eluted by the addition of 0.5 M imidazole to ChD purification buffer. The elution was diluted with 30% glycerol, flash frozen, and stored at −80° C. until needed. Protein purity was assessed by SDS-PAGE and concentration was determined by the Pierce 660 kit (Thermo Scientific).
(§2) Competitive Fluorescence polarization (FP) assay of PSL hits against CBX6 ChD, CBX7 ChD and CBX8 ChD. FP was measured by titration of CBX ChDs to a FITC-labelled probe as previously reported (Simhadri et al.). Binding and competition FP assays were performed in black 384-well plates with optical bottoms. The protein concentrations used were selected based on the reported relative affinity of the CBX ChD protein for the FITC probes. The FITC-labeled probe was kept constant at 100 nM with 1 μM CBX6, 0.4 μM CBX7 or 4 μM CBX8 with varying amounts of peptide by 2-fold series dilutions, from 500 μM as highest peptide concentration to 0.488 μM as the lowest. Assays were performed for each peptide in four replicates.

Another assay deals with T2, CBX6 ChD (Homo sapiens, UniProt O95503).
T2 construct: CBX chromodomain constructs; host or cells: E. coli BL21 CodonPlus RIL
T2 sequence (O95503 11-69 limits assumed): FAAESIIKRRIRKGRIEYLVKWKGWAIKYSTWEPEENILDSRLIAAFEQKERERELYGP
Briefly: Competitive fluorescence polarization (FP) assay. The note with it: average of quadruplicates ± s.d. The assay is classed as binding. The procedure: as §1, §2
In general terms: Polarisation of emitted light reports the rotation of a fluorescent probe.

Assay [2] addresses T3, CBX8 ChD (Homo sapiens, UniProt Q9HC52).
T3 construct: CBX chromodomain constructs; host or cells: E. coli BL21 CodonPlus RIL
T3 sequence (Q9HC52 11-69 limits assumed): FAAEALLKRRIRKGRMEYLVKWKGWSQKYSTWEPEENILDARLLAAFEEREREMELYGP
Briefly: Competitive fluorescence polarization (FP) assay. The assay is classed as binding. The method, then:
as §1, §2

Assay [3] concerns the target T3, CBX8 ChD. As to the kind of experiment: Direct fluorescence polarization (FP) binding assay. The method, then: as §1, with “Bacterial” for “CBX chromodomain constructs (addgene plasmid #25158 (CBX2), #25237 (CBX4), #25296 (CBX6), #25241 (CBX7) and #62514 (CBX8, provided by Cheryl Arrowsmith), Kaustov et al.) were transformed into chemically competent BL21 CodonPlus RIL E. coli cells (Stratagene, La Jolla, Calif.) as N-terminal His6-tagged proteins. Bacterial”
Direct fluorescence polarization (FP) binding assay of PSL hits against PcG CBX ChDs. FP assays were conducted as above with slight modifications. Alkyne peptides described above were conjugated with a fluorescein group(5-/6-FAM) through copper catalyzed click reaction as previously described. The FAM-labeled peptide was kept constant at 100 nM. The CBX ChD proteins were titrated by 2-fold series dilutions in the assays. The highest protein concentrations, at which FAM-peptide was completely bound, used for each CBX in the direct binding assays depends on the binding affinity of the peptides. Assays were performed for each peptide in four replicates.

The mark [4] stands for this setting: competitive FP, average of quadruplicates ± s.d., read-out: IC50 (μM) CBX8.

Each structure is given as a SMILES string. Like-named read-outs stand apart in the source and are kept apart here. Square brackets hold non-standard residues; d marks the D form. Peptide text beside a SMILES is read from it. * marks the point of attachment. ξ: configuration not given here. Isoxazole3carbonyl(5-Me) = Cc1cc(C(=O)*)no1; Tyr(3-Cl) = N[C@@H](Cc1ccc(O)c(Cl)c1)C(=O)O; Benzoyl(4-OPh) = O=C(c1ccc(Oc2ccccc2)cc1)*; Benzoyl(4-Ph) = O=C(c1ccc(-c2ccccc2)cc1)*; Lys(Me3) = C[N+](C)(C)CCCC[C@H](N)C(=O)O; Gly(3-thienyl) = N[C@H](C(=O)O)c1ccsc1; Lys(Et2) = CCN(CC)CCCC[C@H](N)C(=O)O; Gly(cPent) = N[C@H](C(=O)O)C1CCCC1; Gly(cPr) = N[C@H](C(=O)O)C1CC1; ξIle = CC[C@H](C)C(N)C(=O)O; NH(propargyl) = C#CCN*

Experimental for THP1 cells: Cells were grown for 72 h before trypsinized and counted. Cell suspension was homogenized by gentle pipetting and counted using Countess II (#AMQAF1000, Life Technologies). […] At day 6, 25 percent of cells in each well were split and transferred to new wells to avoid over-confluency, and media was replaced with fresh compounds in new media. The cell viability assay was extended to 12 days, with cell counting and fresh compound replenishment at day 3, 6, 9.
Luminescence was normalized to DMSO-treated groups. The IC50 was calculated using the “log[inhibitor] vs. the normalized response-variable slope” equation in GraphPad Prism 7.

`CCCc1cc(C)[nH]c(=O)c1CNC(=O)c1cc(-c2ccnc(N3CCN(C)CC3)c2)cc2c1cnn2C(C)C` [GSK343]: in assay [1], the CBX2 protein expression entry is “decrease in CBX2 expression”. In assay [1] (10 μM, 48 hours), the H3K27me3 levels entry is given as “reduces H3K27me3 levels”. In addition, the “AR, ENO2 and N-Myc expression” value in assay [1] (compared to DMSO) was “increase AR and decrease ENO2 and N-Myc expression”.

As for `C#CCNC(=O)[C@H](CO)NC(=O)[C@H](CCCCN(CC)CC)NC(=O)[C@@H](NC(=O)[C@@H](NC(=O)c1ccc(Oc2ccccc2)cc1)c1ccsc1)[C@@H](C)CC` [SW2-110B] ({Benzoyl(4-OPh)}-[Gly(3-thienyl)]I[Lys(Et2)]S-{NH(propargyl)}), the “IC50 (μM) CBX7” value at CBX7 ChD is listed as “ND (Aggreg.)”. Also, at CBX6 ChD, the “IC50 (μM) CBX6” value is reported as “ND (Aggreg.)”.

Regarding `CC[C@H](C)C(NC(=O)[C@@H](NC(=O)c1ccc(-c2ccccc2)cc1)C1CCCC1)C(=O)N[C@@H](CCCC[N+](C)(C)C)C(=O)N[C@@H](CO)C(N)=O` (stereo partly drawn) [SW2_89] ({Benzoyl(4-Ph)}-[Gly(cPent)][ξIle][Lys(Me3)]S-NH2), the “IC50 (μM) CBX6” value at CBX6 ChD is reported as “ND (Aggreg.)”.

The compound `CC[C@H](C)C(NC(=O)[C@@H](NC(=O)[C@H](Cc1ccc(O)c(Cl)c1)NC(=O)c1cc(C)on1)C1CC1)C(=O)N[C@@H](CCCC[N+](C)(C)C)C(=O)N[C@@H](CO)C(N)=O` (stereo partly drawn) [SW2_90] ({Isoxazole3carbonyl(5-Me)}-[Tyr(3-Cl)][Gly(cPr)][ξIle][Lys(Me3)]S-NH2) registered an IC50 on CBX7 ChD of 0.82 ± 0.12 µM.

On to `CC[C@H](C)C(NC(=O)[C@@H](NC(=O)c1ccc(-c2ccccc2)cc1)C1CC1)C(=O)N[C@@H](CCCC[N+](C)(C)C)C(=O)N[C@@H](CO)C(N)=O` (stereo partly drawn) [SW2_101A] ({Benzoyl(4-Ph)}-[Gly(cPr)][ξIle][Lys(Me3)]S-NH2), for which the concentration for half-maximal inhibition (IC50) on CBX8 ChD [2] (setting [4]) stood at 40 ± 8.3 µM.

As to `CC[C@H](C)C(NC(=O)[C@@H](NC(=O)c1ccc(Oc2ccccc2)cc1)C1CCCC1)C(=O)N[C@@H](CCCC[N+](C)(C)C)C(=O)N[C@@H](CO)C(N)=O` (stereo partly drawn) [SW2_101B] ({Benzoyl(4-OPh)}-[Gly(cPent)][ξIle][Lys(Me3)]S-NH2), the IC50 at CBX7 ChD and on CBX6 ChD was more than 100 µM each time.

`CC[C@H](C)C(NC(=O)[C@@H](NC(=O)c1ccc(Oc2ccccc2)cc1)C1CC1)C(=O)N[C@@H](CCCC[N+](C)(C)C)C(=O)N[C@@H](CO)C(N)=O` (stereo partly drawn) [SW2_101F] ({Benzoyl(4-OPh)}-[Gly(cPr)][ξIle][Lys(Me3)]S-NH2): the concentration for half-maximal inhibition (IC50) was more than 100 µM on CBX6 ChD and 4 ± 1.1 µM at CBX8 ChD [2] (setting [4]).

As for `C#CCNC(=O)[C@H](CO)NC(=O)[C@H](CCCCN(CC)CC)NC(=O)C(NC(=O)[C@@H](NC(=O)c1ccc(-c2ccccc2)cc1)c1ccsc1)[C@@H](C)CC` (stereo partly drawn) [SW2_104B] ({Benzoyl(4-Ph)}-[Gly(3-thienyl)][ξIle][Lys(Et2)]S-{NH(propargyl)}), the “IC50 (μM) CBX7” value on CBX7 ChD is “ND (Aggreg.)”. In addition, on CBX6 ChD, the “IC50 (μM) CBX6” value is “ND (Aggreg.)”. Besides, the half-inhibitory concentration (IC50) on CBX8 ChD [2] (setting [4]) was more than 15 µM.

Consider `CC[C@H](C)[C@H](NC(=O)[C@@H](NC(=O)c1ccc(Oc2ccccc2)cc1)C1CCCC1)C(=O)N[C@@H](CCCCN(CC)CC)C(=O)N[C@@H](CO)C(=O)NCc1cn(CCCCNC(=O)c2ccc3c(c2)C2(OC3=O)c3ccc(O)cc3Oc3cc(O)ccc32)nn1` [SW2_110A-FL], for which, on CBX8 ChD [3] (from Kd values), the “selectivity for CBX8 ChD over CBX7 ChD” value came to 20 fold and the “selectivity for CBX8 over CBX2” value is on record as 5 fold.

Turning to `C#CCNC(=O)[C@H](CO)NC(=O)[C@H](CCCCN(CC)CC)NC(=O)C(NC(=O)[C@@H](NC(=O)c1ccc(Oc2ccccc2)cc1)C1CCCC1)[C@@H](C)CC` (stereo partly drawn) [SW2_110A] ({Benzoyl(4-OPh)}-[Gly(cPent)][ξIle][Lys(Et2)]S-{NH(propargyl)}), on CBX8 ChD [3], the Kd was approximately 0.8 µM and the “selectivity for CBX8 over all other CBX paralogs in vitro” value is not below 5 fold. Moreover, at CBX7 ChD, the “IC50 (μM) CBX7” value is given as “ND (Aggreg.)”. Further, the “IC50 (μM) CBX6” value on CBX6 ChD is given as “ND (Aggreg.)”. At CBX8 ChD [2], the IC50 was more than 7 µM. Besides, in the assay with THP1 cells (100 μM, after 12 days of treatment), the “inhibition of THP1 proliferation compared to DMSO” value is on record as approximately 80%. In the assay with THP1 cells (read-out: IC50 for growth inhibition of THP1 cells, 12-day treatment, CellTiter-Glo), the IC50 was 25 ± 1.1 µM.

Usually IC50 stands for the concentration that gives 50% inhibition. As usually defined, the Kd is the constant that tells how readily two partners part at equilibrium. Low values mean a tighter complex, high ones a looser complex.
